Assays:
[1] = test system: MCD diet-induced MASH; experiment: MCD diet-induced MASH mice, long-term model; format: in vivo, mouse; conditions: oral, 4 weeks
Experimental: For the long-term MASH model, 8- to 10-week-old male C57BL/6 J mice were fed with an MCS diet or MCD diet for 2 weeks, before the MCD models were administered with vehicle or GUDCA (50 mg/kg), OCA (30 mg/kg), and DC646 (10 mg/kg) for 4 weeks. The serum, liver, and intestine were collected 2 h after the final dosing. Male Fxr^△IE mice (8–10 weeks old) were fed with a GAN diet for 20 weeks and administered with vehicle or DC646 (10 mg/kg) from the 12th week for 8 weeks. The serum, liver, and intestine were collected 2 h after the final dosing.
The intestine and liver were frozen in liquid nitrogen and stored at −80°C. RNA was extracted, and complementary DNA was synthesized from 1 μg total RNA. RT-qPCR was performed on a Bio-Rad CFX384 Touch detection system (Bio-Rad). The primer sequences for RT-qPCR are shown in Supplementary Table S5. RNA levels were analyzed by 2-^ΔΔCt, normalized to 18S ribosomal RNA and expressed as fold change relative to the control group.
Hepatic TG and TC, and plasma ALT and AST levels were measured using commercial kits from Nanjing Jiancheng Bioengineering Institute according to the manufacturer’s instructions. To measure hepatic TG contents, liver tissues (~10 mg) were homogenized in 100 μL 1% TritonX-100 and centrifuged at 3000 rpm for 10 min. Supernatants were collected, and 2 μL samples were incubated with 200 μL reaction buffer at 37°C for 10 min. Hepatic TG or TC levels were read at 510 or 500 nm using a microplate reader (Versamax, Molecular Devices) and normalized using the protein concentration. To measure plasma ALT and AST levels, reaction buffer 1 and reaction buffer 2 were mixed at a ratio of 1:1, before adding 2 μL plasma sample and 200 μL mixed reaction buffer in a 96-well plate. The data were acquired using the kinetic mode with an interval of 30 s and 31 total reads at 340 nm using a microplate reader (Versamax, Molecular Devices).
Tissue specimens were fixed in 10% formalin for 12–24 h before being dehydrated and paraffin-embedded. The sections were stained with H&E. The NAS was calculated as a summary score including individual components of steatosis (0–3), lobular inflammation (0–3), and hepatocyte ballooning (0–2) for each liver section by a blinded liver pathologist, and the results were reviewed by a blinded hepatologist according to a previous protocol. To visualize liver fibrosis, paraffin-embedded tissue samples were stained with Sirius Red to characterize the collagen deposition. To visualize lipid accumulation and inflammation in the liver, frozen liver sections were stained with Oil Red O and F4/80, and images were acquired using a Leica DM6B laser microdissection system. At least three discontinuous liver sections were evaluated for each mouse.

[2] = Subacute toxicity test; format: in vivo, mouse
Experimental: For the subacute toxicity test of DC646, oral injection of vehicle, 20 mg/kg, 100 mg/kg, or 200 mg/kg DC646 to C57BL/6 male mice was carried out for 7 days. During the week, the body weight and food/water intake were monitored every day. The serum, liver, kidneys, brain, heart, lungs, spleen, testicle, and epididymis were weighed and collected 2 h after the final dosing.
Supplementary Figure S10 Subacute toxicity test of DC646 at 20 mg/kg, 100 mg/kg, or 200 mg/kg. (a) Strategy of animal experiment. (b) Body weight. (c) Food intake. (d) Water intake. (e) Representative pictures of organ morphologies. (f) 1/3 Intestine length and colon length. (g) Organ weight. (h and i) Serum ALT (h) and AST(i) levels. (j) H&E staining of heart, liver, spleen, lung, and kidney. n = 5 in each group. Data are presented as the mean ± SEM and analyzed by one-way ANOVA with Dunnett’s post hoc test.

[3] = DC646 10 mg/kg, GUDCA 50 mg/kg, OCA 30 mg/kg
[4] = C57BL/6 male mice, oral 20, 100, 200 mg/kg, 7 days

CC(C)C[C@@H]1NC(=O)[C@@H]2CN(CCO2)c2cccc3c2c(cn3[Si](C(C)C)(C(C)C)C(C)C)C[C@H](NS(=O)(=O)C(F)(F)F)C(=O)OCCCCNC(=O)[C@H](CC(C)C)NC(=O)[C@@H]2CN(CCO2)c2cccc3c2c(cn3[Si](C(C)C)(C(C)C)C(C)C)C[C@H](NS(=O)(=O)C(F)(F)F)C(=O)OCCCCNC1=O [DC646, N,N'-((1^2R,1^4S,16^2R,16^4S,4R,13R,19R,28R)-13,28-diisobutyl-5,12,15,20,27,30-hexaoxo-2^1,17^1-bis(triisopropylsilyl)-2^1H,17^1H-6,21-dioxa-11,14,26,29-tetraaza-1(4,2),16(2,4)-dimorpholina-2,17(4,3)-diindolacyclotriacontaphane-4,19-diyl)bis(1,1,1-trifluoromethanesulfonamide)]
F4/80 staining, macrophage infiltration in the liver ([1]; DC646 10 mg/kg): good efficacy in reducing macrophage infiltration
Hepatic FXR signaling in MASH mice ([1]; DC646 10 mg/kg): without affecting
Hepatic triglyceride (TG) levels ([1]; DC646 10 mg/kg): markedly reduced
Intestinal FXR signaling in MASH mice ([1]; DC646 10 mg/kg): selectively inhibited
NAFLD activity scoring (NAS) ([1]; DC646 10 mg/kg): alleviating MASH pathologies
Hepatic mRNA levels of inflammation-related genes ([1]; DC646 10 mg/kg, GUDCA 50 mg/kg): notable reduction
Hepatic mRNA levels of lipid metabolism-related genes / hepatic lipid accumulation [1, 3]: reduce the mRNA levels
Serum alanine aminotransferase (ALT) level [1, 3]: significantly lowered
H&E and Oil Red O staining, lipid droplets ([1]; versus vehicle-, GUDCA- and OCA-treated groups): fewer lipid droplets
Tolerated dose over minimum effective dose ([2]; 200 mg/kg versus minimum effective dose): more than 20 folds
Food/water intake ([2]; C57BL/6 male mice, oral 200 mg/kg, 7 days, normal body weight): mildly decreased
Liver injury indicated by serum ALT and AST [2, 4]: did not cause liver injury
Organ morphology, small intestine and colon length, organ weight [2, 4]: no difference
Body weight and food/water intake ([2]; C57BL/6 male mice, oral 20 and 100 mg/kg, 7 days): did not affect
MTD at 168 h ([2]; mouse, in vivo, C57BL/6 male mice, oral, 7 days, highest dosage tested, read-out: Highest dosage with good tolerance): 200 mg/kg
